These are literature values, as cited in US20090022786A1, “Oral pharmaceutical dosage form and manufacturing method thereof” (YUNG SHIN PHARM. IND. CO., LTD., priority 2007, published 2009).

Structures can show the parent of a compound that is named as a salt. Where two headings read alike, the source gives them in different places. Where only a bound is given, the exact number is not on record here.

Data set [1] concerns gastric acid secretion. The conditions noted are these: oral.
Experiment in data set [2]: not given
This is another data set of the same source.

Experiment in data set [3]: not given
The source holds these as a separate data set.

Experiment in data set [4]: not given
The source holds these as a separate data set.

Where [5] appears, read: as glucuronate- or sulfate-associated form.

As for `CCCCC(C)(O)C/C=C/[C@H]1[C@H](O)CC(=O)[C@@H]1CCCCCCC(=O)OC` (mixture of isomers) [Misoprostol, (±) methyl 11α,16-dihydroxy-16-methyl-9-oxoprost-13E-en-1-oate], for the setting “in 24 hours”, the “Fraction eliminated with urine” value is 64-73%. Besides, under “in vivo”, the Elimination half-life is 20 to 40 min and the “Fraction eliminated with the faeces” value is reported as 15%. Moreover, where the note is “oral”, the “Absorption after oral administration” value was “rapidly absorbed” and the “Time of maximum plasma concentration” value is 15 to 30 min. In data set [1], the “Time to inhibition of gastric acid secretion” value is given as at most 30 min. Moreover, the Solubility in water result in data set [2] is reported as “soluble”. The “Stability at room temperature” value in data set [3] (room temperature) was “very unstable”.
`O=C(O)Cc1ccccc1Nc1c(Cl)cccc1Cl` [Diclofenac sodium, 2-[(2,6-dichlorophenyl)amino] benzene acetic acid, monosodium salt]: the Solubility in chloroform result in data set [2] (chloroform) is given as “extremely insoluble”. For the same molecule, the Solubility in ethanol result in data set [2] (ethanol) is recorded as “soluble”. Besides, the Solubility in methanol entry in data set [2] (methanol) is “soluble”. For the same molecule, the Solubility in water result in data set [2] was “somewhat”. For the same molecule, in data set [3] (humidity and light), the “Stability to humidity and light” value was “accessible to be destroyed by humidity and light”. Moreover, in data set [4] (setting [5]), the “Fraction eliminated with the faeces after biliary secretion” value is recorded as 1/30 and the “Fraction eliminated with urine” value is on record as “⅔”. For the same molecule, in data set [4] (in vivo), the “Binding to plasma protein” value is “More than 90%” and the Half-life was 60 to 120 min. The “Fraction entering systematic circulation” value in data set [4] (oral) is recorded as 50-60%. For the same molecule, in data set [4] (oral single dose of 50 mg), the “Peak value of plasma concentration” value was 1.5 µg/mL and the “Time of maximum plasma concentration” value is 1 to 2 h.
